From patent US20210309669A1, “Heterocyclic Spiro Compounds As MAGL Inhibitors” (Pfizer Inc., priority 2018, published 2021)

Assay: Mouse subcutaneous neuropharmacokinetics study
Assay type: in vivo, Male C57Bl6 mice
Details: male, C57Bl6, mouse, brain (cerebellum homogenate) and plasma, sc, subcutaneous dose of 1 mg/kg, read-out: Mouse Cb,u/Cp,u
Protocol: The neuropharmacokinetics studies in mouse were conducted at Wuxi (Shanghai, China) with bioanalysis conducted at BioDuro (Beijing, China) with the exception of the Comparative-compound 3, which bioanalysis was conducted at Wuxi. All in vivo studies were conducted in accordance with regulations and established guidelines using protocols reviewed and approved by the Pfizer Worldwide Research and Development (WRD, or other) Institutional Animal Care and Use Committee.
Male C57Bl6 mice were maintained on a 12-h light/dark cycle in a temperature- and humidity-controlled environment with free access to food and water. The test compounds (Examples 1 and 2 and Comparative Compounds 1-3) were administered as a subcutaneous dose of 1 mg/kg which was delivered in a dose volume of 10 mL/kg. The dose solution for all compounds was formulated in 5% DMSO/5% cremophor/90% saline. Blood and brain samples were collected at 0.5, 1, 2, 4, 8, 12, and 24 h post-dose (n=3 per time point). Blood samples were collected into tubes containing sodium fluoride and 4-(2-aminoethyl)benzenesulfonyl fluoride hydrochloride (AEBSF; final concentration 2 mg/mL) to inhibit hydrolase activity and placed on wet ice. Following centrifugation to afford plasma, the samples were transferred to polypropylene tubes and stored frozen at −20° C. to −80° C. until analysis. Immediately following blood collection the mice were euthanized by cervical dislocation and the brains were removed. The cerebellum was immediately frozen in liquid nitrogen and stored at −80° C. until analysis.
Cerebellum samples were thawed, diluted 1:4 (w/v) with water, and homogenized using an H-speed dispersator. Standards and controls were prepared in a similar manner using a brain homogenate prepared from untreated animals. The plasma standard curves were generated with species specific plasma. All plasma and brain homogenate samples were quantified via LC/MS-MS using multiple reaction monitoring with non-validated methods.
Equilibrium dialysis using standard procedures [See Di et al., “Species independence in brain tissue binding using brain homogenates”; Drug Metab Dispos 39:1270-1277, 2011) were used for determination of the unbound fraction of the test compounds (Examples 1 and 2 and Comparative Compounds 1-3) in mouse plasma (fu,p; see Di et al., “impact of recovery on fraction unbound using equilibrium dialysis”; J Pharm Sci 101:1327-1335, 2012) and unbound fraction in rat brain homogenate (fu,b; see Di et al., “Species independence in brain tissue binding using brain homogenates”; Drug Metab Dispos 39:1270-1277, 2011). The determination of the unbound fraction in plasma also included the addition of AEBSF at a final concentration of 2 mg/mL to the incubation.
The pharmacokinetic parameters were computed by non-compartmental analysis using Watson Bioanalytical LIMS version 7.5. The AUC values were calculated using the linear trapezoidal method for both brain and plasma. Measured total plasma (Cp) and brain (Cb; assuming brain tissue density of 1 g/mL) concentrations were converted to unbound (free) values using the matrix specific binding factor (fu, p or fu,b) to determine free plasma (Cp,u) and free brain (Cb,u) values. All neurocompartmental ratios (Cb,u/Cp,u) were calculated through use of AUC values with the exception of Comparative Compounds 1 and 2 which used the mean of individual animal values due to insufficient data to calculate an AUC value.

SMILES | Kp,uu (unbound brain/unbound plasma ratio)
O=C(OC(C(F)(F)F)C(F)(F)F)N1CCC2(CC1)C[C@@H](NS(=O)(=O)CC1CC1)CO2 [Example 1, 1,1,1,3,3,3-Hexafluoropropan-2-yl (3R)-3-{[(cyclopropylmethyl)sulfonyl]amino}-1-oxa-8-azaspiro[4.5]decane-8-carboxylate] | 1
O=C(OC(C(F)(F)F)C(F)(F)F)N1CCC2(CC1)C[C@@H](NS(=O)(=O)C1CC1)CO2 [Example 2, 1,1,1,3,3,3-Hexafluoropropan-2-yl (3R)-3-[(cyclopropylsulfonyl)amino]-1-oxa-8-azaspiro[4.5]decane-8-carboxylate] | 0.8
